Earlier results on three compounds are cited in patent US20060240101A1, “Orally disintegrating pharmaceutical tablet formulations of olanzapine” (priority 2005, published 2006).

SMILES strings stand for the structures.

For the data set the following is noted: for water solubility: at 20° C.

On to `OC[C@@H](O)[C@@H](O)[C@H](O)[C@H](O)CO` [Pearlitol® 50C, mannitol], for which the water solubility entry is “approximately 250 g/l”. As for `OC[C@@H](O)[C@@H](O)[C@H](O)[C@H](O)CO` [Pearlitol® 200 SD, mannitol], the water solubility entry is “approximately 170 g/l”. As to `Cc1cc2c(s1)Nc1ccccc1N=C2N1CCN(C)CC1` [olanzapine, 2-methyl-4-(4-methyl-1-piperanzinyl)-10H-thieno[2,3-b][1,5] benzodiazepine], the solubility in water entry (2005 Physician Desk Reference label information for Zyprexa) is listed as “insoluble in water”.
